As usually defined, the EC50 is the concentration needed to bring the measured effect to its halfway point.

We go through 51 molecules from US20040121316A1 (priority 2002, published 2004).

Each structure is given as a SMILES string.

The test system of the first assay is wild-type HIV-1 strain IIIB. As to the kind of experiment: microbe, parasite or virus in culture.
Conditions: not given
More on the design: scale not given here. The format is cell-based.
Regarding `CCOP(=O)(COc1ccc(C[C@H](NC(=O)O[C@H]2CO[C@H]3OCC[C@H]32)[C@H](O)CN(CC(C)C)S(=O)(=O)c2ccc([N+](=O)[O-])cc2)cc1)OCC`, the “EC50 (nM)” value was “+ +”.

Take `CCOP(=O)(CCNCc1ccc(CC(NC(=O)OC2COC3OCCC23)C(O)CN(CC(C)C)S(=O)(=O)c2ccc(OC)cc2)cc1)OCC` (stereo not drawn) [drawing 619 R1=Et R2=Et]: the 50% effective concentration (EC50) result is recorded as “+ + +”.

The same assay, now with this note: Human immunodeficiency virus 1, IIIB.
For `CCOP(=O)(COc1ccc2c(c1)CN(CC(NC(=O)OC1COC3OCCC13)C(O)CN(CC(C)C)S(=O)(=O)c1ccc(OC)cc1)C2)OCC` (stereo not drawn), the EC50 is more than 5000 nM. In the case of `COc1ccc(S(=O)(=O)N(CC2CCNCC2)CC(O)C(Cc2ccc(O)cc2)NC(=O)OC2COC3OCCC23)cc1` (stereo not drawn), the EC50 is more than 5000 nM. `COc1ccc(S(=O)(=O)N(CC2CCN(C=O)CC2)CC(O)C(Cc2ccc(OCP(=O)(O)O)cc2)NC(=O)OC2COC3OCCC23)cc1` (stereo not drawn): the EC50 was more than 5000 nM. The same measure, in the same setting: with `CCOP(=O)(COc1ccc(CC(NC(=O)OC2COC3OCCC23)C(O)CN(CC2CCN(C=O)CC2)S(=O)(=O)c2ccc(OC)cc2)cc1)OCC` (stereo not drawn) the figure was more than 5000 nM; with `CCOP(=O)(COc1ccc(CC(NC(=O)OC2COC3OCCC23)C(O)CN(CC2CCN(C)CC2)S(=O)(=O)c2ccc(OC)cc2)cc1)OCC` (stereo not drawn), more than 5000 nM; with `CC(C)CN(CC(O)C(Cc1ccc(OCP(=O)(O)O)cc1)NC(=O)OC1COC2OCCC12)S(=O)(=O)c1ccccc1` (stereo not drawn), more than 5000 nM. Same read-out and setting: with `CC(C)CN(CC(O)C(Cc1ccc(OCP(=O)(O)O)cc1)NC(=O)OC1COC2OCCC12)S(=O)(=O)c1ccc(F)cc1` (stereo not drawn) the figure was 500 to 5000 nM.

Regarding `CC(C)CN(CC(O)C(Cc1ccc(OCP(=O)(O)O)cc1)NC(=O)OC1COC2OCCC12)S(=O)(=O)c1ccc(C(F)(F)F)cc1` (stereo not drawn), the EC50 was 500 to 5000 nM. In turn, `CC(C)CN(CC(O)C(Cc1ccc(OCP(=O)(O)O)cc1)NC(=O)OC1COC2OCCC12)S(=O)(=O)c1ccc(OC(F)(F)F)cc1` (stereo not drawn) came in with an EC50 of 500 to 5000 nM. The molecule `CC(C)CN(CC(O)C(Cc1ccc(OCP(=O)(O)O)cc1)NC(=O)OC1COC2OCCC12)S(=O)(=O)N1CCN(C)CC1` (stereo not drawn) had an EC50 of more than 5000 nM.

The molecule `COc1ccc(S(=O)(=O)N(CC(C)C)CC(O)C(Cc2ccccc2)NC(=O)OC2COC3OCCC23)cc1OCP(=O)(OCc1ccccc1)OCc1ccccc1` (stereo not drawn) displayed a concentration giving a half-maximal response (EC50) of 500 to 5000 nM.

On to `CC(C)CN(C[C@@H](O)[C@H](Cc1ccccc1)NC(=O)O[C@H]1CO[C@H]2OCC[C@H]21)S(=O)(=O)c1ccc(N)cc1` [TMC114, reference compound], for which the EC50 is less than 50 nM.

Take `COc1ccc(S(=O)(=O)N(CC(C)C)CC(O)C(Cc2ccc(OCP(=O)(OCC(F)(F)F)OCC(F)(F)F)cc2)NC(=O)OC2COC3OCCC23)cc1` (stereo not drawn) [drawing 608 R1=OCH2CF3 R2=OCH2CF3]: the concentration giving a half-maximal response (EC50) is more than 5000 nM. `CCOP(=O)(COc1ccc(CC(NC(=O)OC2COC3OCCC23)C(O)CN(CC(C)C)S(=O)(=O)c2ccc(OC)cc2)cc1)OCC` (stereo not drawn) [drawing 608 R1=OEt R2=OEt] yielded an EC50 of less than 50 nM.

Take `COc1ccc(S(=O)(=O)N(CC(C)C)CC(O)C(Cc2ccc(OCP(=O)(OC)OC)cc2)NC(=O)OC2COC3OCCC23)cc1` (stereo not drawn) [drawing 608 R1=OMe R2=OMe]: the EC50 was less than 50 nM. In turn, `COc1ccc(S(=O)(=O)N(CC(C)C)CC(O)C(Cc2ccc(OCP(=O)(OC(C)C)OC(C)C)cc2)NC(=O)OC2COC3OCCC23)cc1` (stereo not drawn) [drawing 608 R1=OiPr R2=OiPr] yielded an EC50 of less than 50 nM. `CCOP(=O)(COc1ccc(CC(NC(=O)OC2COC3OCCC23)C(O)CN(CC(C)C)S(=O)(=O)c2ccc(O)cc2)cc1)OCC` (stereo not drawn) [drawing 609 R1=Et R2=Et] showed a 50% effective concentration (EC50) of less than 50 nM. `CC(C)CN(CC(O)C(Cc1ccc(OCP(=O)(O)O)cc1)NC(=O)OC1COC2OCCC12)S(=O)(=O)c1ccc(O)cc1` (stereo not drawn) [drawing 609 R1=OH R2=OH] registered an EC50 of 500 to 5000 nM. In turn, `CCCCOC(=O)C(C)NP(=O)(COc1ccc(CC(NC(=O)OC2COC3OCCC23)C(O)CN(CC(C)C)S(=O)(=O)c2ccc(OC)cc2)cc1)NC(C)C(=O)OCCCC` (stereo not drawn) [drawing 612 R1=Ala-Bu R2=Ala-Bu] yielded an EC50 of less than 50 nM. For `CCCCOC(=O)CNP(=O)(COc1ccc(CC(NC(=O)OC2COC3OCCC23)C(O)CN(CC(C)C)S(=O)(=O)c2ccc(OC)cc2)cc1)NCC(=O)OCCCC` (stereo not drawn) [drawing 612 R1=Gly-Bu R2=Gly-Bu], the concentration giving a half-maximal response (EC50) is less than 50 nM. For the molecule `CCOC(=O)CNP(=O)(COc1ccc(CC(NC(=O)OC2COC3OCCC23)C(O)CN(CC(C)C)S(=O)(=O)c2ccc(OC)cc2)cc1)NCC(=O)OCC` (stereo not drawn) [drawing 612 R1=Gly-Et R2=Gly-Et], the EC50 fell in the range of 50 to 500 nM. In turn, `CCOC(=O)C(CC(C)C)NP(=O)(COc1ccc(CC(NC(=O)OC2COC3OCCC23)C(O)CN(CC(C)C)S(=O)(=O)c2ccc(OC)cc2)cc1)NC(CC(C)C)C(=O)OCC` (stereo not drawn) [drawing 612 R1=Leu-Et R2=Leu-Et] displayed an EC50 of less than 50 nM. With `COc1ccc(S(=O)(=O)N(CC(C)C)CC(O)C(Cc2ccc(OCP(=O)(O)NC(C)C(=O)O)cc2)NC(=O)OC2COC3OCCC23)cc1` (stereo not drawn) [drawing 614 R1=OH R2=Ala-OH], the EC50 was more than 5000 nM.

`COc1ccc(S(=O)(=O)N(CC(C)C)CC(O)C(Cc2ccc(CNCCP(=O)(O)O)cc2)NC(=O)OC2COC3OCCC23)cc1` (stereo not drawn) [drawing 619 R1=H R2=H] came in with an EC50 of more than 5000 nM.

The same assay, now with this note: Human immunodeficiency virus 1, IIIB, MT2, 120 h, read-out: Anti-HIV-1 Cell Culture Activity EC50.
Consider `CCOC(=O)CNP(=O)(COc1ccc(CC(NC(=O)OC2COC3OCCC23)C(O)CN(CC(C)C)S(=O)(=O)c2ccc(OC)cc2)cc1)NCC(=O)OCC` (stereo not drawn) [Compound 16a], for which the EC50 was found to be 330 ± 230 nM.

Regarding `CCCCOC(=O)C(CC)NP(=O)(COc1ccc(CC(NC(=O)OC2COC3OCCC23)C(O)CN(CC(C)C)S(=O)(=O)c2ccc(OC)cc2)cc1)NC(CC)C(=O)OCCCC` (stereo not drawn) [Example 16f], the EC50 is 4.8 ± 1.8 nM. The same measure, in the same setting: with `CCCCOC(=O)C(CC(C)C)NP(=O)(COc1ccc(CC(NC(=O)OC2COC3OCCC23)C(O)CN(CC(C)C)S(=O)(=O)c2ccc(OC)cc2)cc1)NC(CC(C)C)C(=O)OCCCC` (stereo not drawn) [Example 16h] the figure was 120 ± 42 nM.

Still in this assay, the particulars now being: read-out: EC50.
In the case of `CCOC(=O)C(CC)NP(=O)(COc1ccc(CC(NC(=O)OC2COC3OCCC23)C(O)CN(CC(C)C)S(=O)(=O)c2ccc(OC)cc2)cc1)Oc1ccccc1` (stereo not drawn) [Example 16576], the EC50 amounted to 12.6 ± 4.8 nM. As for `COc1ccc(S(=O)(=O)N(CC(C)C)C[C@@H](O)[C@H](Cc2ccc(OCP(=O)(O)O)cc2)NC(=O)O[C@H]2CO[C@H]3OCC[C@H]32)cc1` [GS8373], the 50% effective concentration (EC50) worked out at 4800 nM.

For `CC(C)CN(C[C@@H](O)[C@H](Cc1ccc([N+](=O)[O-])cc1)NC(=O)O[C@H]1CO[C@H]2OCC[C@H]21)S(=O)(=O)c1ccc(OCP(=O)(Oc2ccccc2)Oc2ccccc2)cc1` [NO2, phenol], the EC50 was less than 50 nM. As to `CC(C)CN(CC(O)C(Cc1ccc(OCCN(C)C)cc1)NC(=O)OC1COC2OCCC12)S(=O)(=O)c1ccc(OCP(=O)(OCc2ccccc2)OCc2ccccc2)cc1` (stereo not drawn) [OC2H4-NMe2, OBn], the EC50 lay in the range of 50 to 500 nM. For the molecule `CC(C)CN(CC(O)C(Cc1ccc(OCCN(C)C)cc1)NC(=O)OC1COC2OCCC12)S(=O)(=O)c1ccc(OCP(=O)(O)O)cc1` (stereo not drawn) [OC2H4NMe2, OH], the EC50 was in the range of 500 to 5000 nM.

For `CC(C)CN(CC(O)C(Cc1ccc(O)cc1)NC(=O)OC1COC2OCCC12)S(=O)(=O)c1ccc(OCP(=O)(OCc2ccccc2)OCc2ccccc2)cc1` (stereo not drawn) [OH, OBn], the EC50 lay in the range of 50 to 500 nM. Turning to `CC(C)CN(CC(O)C(Cc1ccc(O)cc1)NC(=O)OC1COC2OCCC12)S(=O)(=O)c1ccc(OCP(=O)(O)O)cc1` (stereo not drawn) [OH, OH], the EC50 was more than 5000 nM.

On to `COc1ccc(S(=O)(=O)N(CC(C)C)C[C@@H](OP(=O)(O)O)[C@H](Cc2ccccc2)NC(=O)O[C@H]2CO[C@H]3OCC[C@H]32)cc1` [Phosphate prodrug of 94-003], for which the EC50 is less than 50 nM. Consider `CC(C)CN(C[C@@H](OP(=O)(O)O)[C@H](Cc1ccccc1)NC(=O)O[C@H]1CCOC1)S(=O)(=O)c1ccc(N)cc1` [Phosphate prodrug of ampenavir], for which the EC50 fell in the range of 50 to 500 nM.

The next assay relates to mutant HIV-1 I84V/L90M. As to the kind of experiment: Resistance Evaluation, I84V/L90M fold change. To be noted: EC50 of mutant I84V/L90M relative to wild type; class symbols. Type of assay: cell-based.
In the case of `CCOP(=O)(CN1CC=C(CC(NC(=O)OC2COC3OCCC23)C(O)CN(CC(C)C)S(=O)(=O)c2ccc(OC)cc2)CC1)OCC` (stereo not drawn), the I84V/L90M fold change entry is recorded as “+ (>3 to ≦10)”. On to `CCOP(=O)(CCC1=CCN(CC(NC(=O)OC2COC3OCCC23)C(O)CN(CC(C)C)S(=O)(=O)c2ccc(OC)cc2)CC1)OCC` (stereo not drawn), for which the I84V/L90M fold change result was “+ (>3 to ≦10)”.

On to `CCOP(=O)(Cc1ccc(NCC(NC(=O)OC2COC3OCCC23)C(O)CN(CC(C)C)S(=O)(=O)c2ccc(OC)cc2)cc1)OCC` (stereo not drawn), for which the I84V/L90M fold change entry is recorded as “+ (>3 to ≦10)”. Take `CCOP(=O)(Cc1ccc(N(C)CC(NC(=O)OC2COC3OCCC23)C(O)CN(CC(C)C)S(=O)(=O)c2ccc(OC)cc2)cc1)OCC` (stereo not drawn): the I84V/L90M fold change result was “+ (>3 to ≦10)”. As for `CCOP(=O)(Cc1ccc(CN(C)CC(NC(=O)OC2COC3OCCC23)C(O)CN(CC(C)C)S(=O)(=O)c2ccc(OC)cc2)cc1)OCC` (stereo not drawn), the I84V/L90M fold change entry is recorded as “− (≦3)”. The same measure, in the same setting: with `CCOP(=O)(Cc1ccc2c(c1)CCN(CC(NC(=O)OC1COC3OCCC13)C(O)CN(CC(C)C)S(=O)(=O)c1ccc(OC)cc1)C2)OCC` (stereo not drawn) the entry was “+ (>3 to ≦10)”; with `CCOP(=O)(CNc1ccc(CC(NC(=O)OC2COC3OCCC23)C(O)CN(CC(C)C)S(=O)(=O)c2ccc(OC)cc2)cc1)OCC` (stereo not drawn), “− (≦3)”. On to `COc1ccc(S(=O)(=O)N(CC(C)C)CC(O)C(Cc2ccc(NCP(=O)(OCc3ccccc3)OCc3ccccc3)cc2)NC(=O)OC2COC3OCCC23)cc1` (stereo not drawn), for which the I84V/L90M fold change result is given as “− (≦3)”.

Staying with this assay, now noted: mutant I84V/L90M vs wild type.
Turning to `COc1ccc(S(=O)(=O)N(CC(C)C)CC(O)C(Cc2ccc(C)cc2)NC(=O)OC2COC3OCCC23)cc1` (stereo not drawn), the I84V/L90M fold change entry is on record as “+ (>3 to ≦10)”. `COc1ccc(S(=O)(=O)N(CC(C)C)CC(O)C(Cc2ccc(OCc3ccccc3)cc2)NC(=O)OC2COC3OCCC23)cc1` (stereo not drawn): the I84V/L90M fold change result was “− (≦3)”. For `COc1ccc(S(=O)(=O)N(CCN2CCOCC2)CC(O)C(Cc2ccc(OCP(=O)(OCc3ccccc3)OCc3ccccc3)cc2)NC(=O)OC2COC3OCCC23)cc1` (stereo not drawn), the I84V/L90M fold change result is given as “+ (>3 to ≦10)”. Take `Cc1ccc(C(=O)NC(Cc2ccc(OCP(=O)(OCc3ccccc3)OCc3ccccc3)cc2)C(O)CN(CC(C)C)S(=O)(=O)c2ccc(N)cc2)cc1O` (stereo not drawn): the I84V/L90M fold change result is listed as “+ (>3 to ≦10)”. For `CCOP(=O)(COc1ccc(CC(NC(=O)OC2COC3OCCC23)C(O)CN(CC(C)C)S(=O)(=O)c2ccc([N+](=O)[O-])cc2)cc1)OCC` (stereo not drawn), the I84V/L90M fold change result was “− (≦3)”.
